Reference: ChEMBL document CHEMBL1201862, “PubChem BioAssay data set” (2004)
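How tested: cells in 96-well plates exposed to compound for 48 hours at five concentrations. Here, GI50 denotes the concentration required for 50% inhibition of growth.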 Calls of active or inactive are those of the source. No stated cut-off is given here; in the data, active = GI50 up to about 1.1 µM and inactive = higher.

What was measured:
Experiment in all cases: growth of human tumour cells (NCI), 48 h
RXF 393 = tested on: RXF 393
M14 = tested on: M14
HCT-116 = tested on: HCT-116
A498 = tested on: A498
NCI-H226 = tested on: NCI-H226
LOX IMVI = tested on: LOX IMVI
NCI-H522 = tested on: NCI-H522
SR = tested on: SR
Hs-578T = tested on: Hs-578T
KM12 = tested on: KM12
OVCAR-8 = tested on: OVCAR-8
COLO 205 = tested on: COLO 205
SF-295 = tested on: SF-295
OVCAR-5 = tested on: OVCAR-5
TK-10 = tested on: TK-10
EKVX = tested on: EKVX
ACHN = tested on: ACHN
NCI-H460 = tested on: NCI-H460
UACC-62 = tested on: UACC-62

SMILES	GI50 (RXF 393)	GI50 (M14)	GI50 (HCT-116)	GI50 (A498)	GI50 (NCI-H226)	GI50 (LOX IMVI)	GI50 (NCI-H522)	GI50 (SR)	GI50 (Hs-578T)	GI50 (KM12)	GI50 (OVCAR-8)	GI50 (COLO 205)	GI50 (SF-295)	GI50 (OVCAR-5)	GI50 (TK-10)	GI50 (EKVX)	GI50 (ACHN)	GI50 (NCI-H460)	GI50 (UACC-62)
COc1ccc(C2=CC(c3ccc4c(c3)OCO4)c3c(c4ccccc4oc3=O)O2)cc1OC (stereo not drawn)	0.764 µM (active)	3.54 µM (inactive)	0.824 µM (active)	0.91 µM (active)	0.546 µM (active)	1.26 µM (inactive)	0.486 µM (active)	0.486 µM (active)	1.65 µM (inactive)	1.76 µM (inactive)	3.53 µM (inactive)	1.51 µM (inactive)	0.374 µM (active)	4.85 µM (inactive)	2.75 µM (inactive)	4.16 µM (inactive)	1.5 µM (inactive)	1.09 µM (active)	0.424 µM (active)
CN(C)CC/C(=N\Nc1c(Cl)cccc1Cl)c1ccccc1	11.8 µM (inactive)	18.2 µM (inactive)	15.3 µM (inactive)	16.6 µM (inactive)	–	17.3 µM (inactive)	17.5 µM (inactive)	21.5 µM (inactive)	–	17 µM (inactive)	16.9 µM (inactive)	15.6 µM (inactive)	16 µM (inactive)	19.2 µM (inactive)	16.8 µM (inactive)	30.3 µM (inactive)	16 µM (inactive)	16.3 µM (inactive)	15.8 µM (inactive)
O=c1oc2c3ccc4ccccc4c3n(Cc3nc4ccccc4[nH]3)c2c2ccccc12	9.4 µM (inactive)	4.71 µM (inactive)	4.72 µM (inactive)	24.4 µM (inactive)	7.03 µM (inactive)	2.26 µM (inactive)	4.42 µM (inactive)	0.791 µM (active)	–	> 64.4 µM (inactive)	13.7 µM (inactive)	12.7 µM (inactive)	9.14 µM (inactive)	> 36.2 µM (inactive)	> 100 µM (inactive)	23.6 µM (inactive)	3.89 µM (inactive)	0.518 µM (active)	3.28 µM (inactive)
COc1cc(NCc2ccc3nc(-c4ccccc4)c(N)nc3c2)cc(OC)c1OC	16 µM (inactive)	18.4 µM (inactive)	18.1 µM (inactive)	23.3 µM (inactive)	27.5 µM (inactive)	41.9 µM (inactive)	23.7 µM (inactive)	37.8 µM (inactive)	–	26.5 µM (inactive)	27.7 µM (inactive)	18.8 µM (inactive)	35.6 µM (inactive)	> 100 µM (inactive)	41.4 µM (inactive)	33.2 µM (inactive)	29.4 µM (inactive)	31.4 µM (inactive)	29.4 µM (inactive)
O/N=C/c1ccc(O)c(O)c1	> 100 µM (inactive)	97.5 µM (inactive)	> 100 µM (inactive)	> 100 µM (inactive)	> 100 µM (inactive)	67.8 µM (inactive)	15.2 µM (inactive)	37.2 µM (inactive)	–	> 100 µM (inactive)	> 100 µM (inactive)	55.8 µM (inactive)	> 100 µM (inactive)	> 100 µM (inactive)	> 100 µM (inactive)	75.7 µM (inactive)	39.9 µM (inactive)	77.4 µM (inactive)	93.3 µM (inactive)
[N-]=[N+]=NCN1C(=O)C2C3C=CC(C2C1=O)C1C2C(=O)N(CN=[N+]=[N-])C(=O)C2C31 (stereo not drawn)	–	> 100 µM (inactive)	> 100 µM (inactive)	–	–	> 100 µM (inactive)	> 100 µM (inactive)	–	> 100 µM (inactive)	> 100 µM (inactive)	> 100 µM (inactive)	> 100 µM (inactive)	60 µM (inactive)	–	> 100 µM (inactive)	> 100 µM (inactive)	> 100 µM (inactive)	> 100 µM (inactive)	> 100 µM (inactive)
Cc1ccc(/N=C/c2ccc3c(c2)OCO3)cc1C	> 100 µM (inactive)	> 100 µM (inactive)	> 100 µM (inactive)	> 100 µM (inactive)	> 100 µM (inactive)	> 100 µM (inactive)	> 100 µM (inactive)	> 100 µM (inactive)	–	> 100 µM (inactive)	> 100 µM (inactive)	> 100 µM (inactive)	> 100 µM (inactive)	> 100 µM (inactive)	> 100 µM (inactive)	> 100 µM (inactive)	> 100 µM (inactive)	> 100 µM (inactive)	> 100 µM (inactive)
O=C1CCC2CCOc3ccc(O)c1c32 (stereo not drawn)	> 100 µM (inactive)	> 100 µM (inactive)	> 100 µM (inactive)	> 100 µM (inactive)	> 100 µM (inactive)	–	> 100 µM (inactive)	> 100 µM (inactive)	–	> 100 µM (inactive)	> 100 µM (inactive)	> 100 µM (inactive)	> 100 µM (inactive)	> 100 µM (inactive)	> 100 µM (inactive)	> 100 µM (inactive)	> 100 µM (inactive)	> 100 µM (inactive)	> 100 µM (inactive)
CCCC1(CCC)c2cc(/C=N\O)ccc2-c2ccc(-c3ccc(C(C)(C)C)cc3)cc21	–	50.2 µM (inactive)	22.6 µM (inactive)	> 10 µM (inactive)	–	32.7 µM (inactive)	–	25.9 µM (inactive)	88.3 µM (inactive)	55.3 µM (inactive)	32.5 µM (inactive)	> 100 µM (inactive)	33.2 µM (inactive)	> 100 µM (inactive)	39 µM (inactive)	56.8 µM (inactive)	41.9 µM (inactive)	38.5 µM (inactive)	–
Cc1nc2ccc(Cl)cc2c2c1CCS2	47.5 µM (inactive)	71.3 µM (inactive)	41.1 µM (inactive)	22 µM (inactive)	51.6 µM (inactive)	38 µM (inactive)	> 100 µM (inactive)	40.9 µM (inactive)	28.6 µM (inactive)	> 100 µM (inactive)	92 µM (inactive)	48.9 µM (inactive)	> 100 µM (inactive)	> 100 µM (inactive)	69.2 µM (inactive)	–	45.1 µM (inactive)	52.2 µM (inactive)	99.8 µM (inactive)
ClC1=C(Cl)C2OC3C=CCC3OC2C(Cl)=C1Cl (stereo not drawn)	28.4 µM (inactive)	> 100 µM (inactive)	32.9 µM (inactive)	> 100 µM (inactive)	95.3 µM (inactive)	52 µM (inactive)	32.2 µM (inactive)	35.3 µM (inactive)	27.5 µM (inactive)	40.6 µM (inactive)	> 100 µM (inactive)	–	> 100 µM (inactive)	> 100 µM (inactive)	> 100 µM (inactive)	44.1 µM (inactive)	91 µM (inactive)	40 µM (inactive)	–
C(/COc1cccnc1)=N\NC1=NCCN1	> 100 µM (inactive)	> 100 µM (inactive)	> 100 µM (inactive)	> 100 µM (inactive)	> 100 µM (inactive)	> 100 µM (inactive)	> 100 µM (inactive)	> 100 µM (inactive)	–	> 100 µM (inactive)	> 100 µM (inactive)	> 100 µM (inactive)	> 100 µM (inactive)	> 100 µM (inactive)	> 100 µM (inactive)	> 100 µM (inactive)	> 100 µM (inactive)	> 100 µM (inactive)	> 100 µM (inactive)
COC(=O)CC1C2CC3C(C2=O)C13 (stereo not drawn)	> 100 µM (inactive)	> 100 µM (inactive)	> 100 µM (inactive)	> 100 µM (inactive)	> 100 µM (inactive)	> 100 µM (inactive)	> 100 µM (inactive)	> 100 µM (inactive)	> 100 µM (inactive)	> 100 µM (inactive)	> 100 µM (inactive)	> 100 µM (inactive)	> 100 µM (inactive)	> 100 µM (inactive)	> 100 µM (inactive)	> 100 µM (inactive)	> 100 µM (inactive)	> 100 µM (inactive)	> 100 µM (inactive)
COC(=O)C1=C(C)C(=O)C2(CCCCCC2C(=O)OC)C1 (stereo not drawn)	> 100 µM (inactive)	> 100 µM (inactive)	> 100 µM (inactive)	> 100 µM (inactive)	> 100 µM (inactive)	–	65.2 µM (inactive)	> 100 µM (inactive)	–	> 100 µM (inactive)	> 100 µM (inactive)	> 100 µM (inactive)	> 100 µM (inactive)	> 100 µM (inactive)	> 100 µM (inactive)	> 100 µM (inactive)	> 100 µM (inactive)	> 100 µM (inactive)	> 100 µM (inactive)
COC(=O)[C@@]12OC[C@]34C([C@@H](O)C1O)[C@@]1(C)CC(=O)C(O)=C(C)C1C[C@H]3OC(=O)[C@H](OC(=O)CC(C)C(F)(F)F)[C@H]42 (stereo partly drawn)	0.0912 µM (active)	0.0347 µM (active)	0.0101 µM (active)	0.0214 µM (active)	0.0108 µM (active)	–	0.00891 µM (active)	0.00429 µM (active)	–	0.0324 µM (active)	0.0574 µM (active)	0.101 µM (active)	0.0445 µM (active)	0.146 µM (active)	0.0662 µM (active)	0.128 µM (active)	0.0231 µM (active)	0.00542 µM (active)	0.00748 µM (active)
CCN1/C(=C/C(C)=C/c2sc3ccccc3[n+]2CC)Sc2ccccc21	0.273 µM (active)	0.212 µM (active)	0.0485 µM (active)	0.381 µM (active)	0.0625 µM (active)	0.135 µM (active)	0.0574 µM (active)	0.181 µM (active)	–	0.0641 µM (active)	0.0948 µM (active)	0.142 µM (active)	0.112 µM (active)	0.431 µM (active)	0.324 µM (active)	0.0885 µM (active)	0.295 µM (active)	0.0621 µM (active)	0.0927 µM (active)
